Measured values as given in ChEMBL document CHEMBL3046690, “Identification of an ISR-related metabolite produced by rhizobacterium Klebsiella oxytoca C1036 active against soft-rot disease pathogen in tobacco” (Pest Manag Sci, 2009).
Calls of active or inactive are those of the source. The rule behind the calls is not given here.

What was measured:
[1] = test system: Nicotiana tabacum; experiment: Induction of systemic resistance (ISR) activity in Nicotiana tabacum (tobacco) seedlings against pectobacterium carotovorum subsp. carotovorum SCC1 assessed as decrease in disease symptoms on leaves at 12 mM applied to roots prior to leaf infection with SCC1 measured at 3 days after pathogen challenge; type: functional, organism-based
[2] = test system: Nicotiana tabacum; experiment: Induction of systemic resistance (ISR) activity in Nicotiana tabacum (tobacco) seedlings against pectobacterium carotovorum subsp. carotovorum SCC1 assessed as decrease in disease symptoms on leaves applied to roots prior to leaf infection with SCC1 measured at 3 days after pathogen challenge; type: functional, organism-based

| SMILES | Activity [1] | Activity [2] |
| --- | --- | --- |
| CCCCOC(=O)C1CCC(=O)N1 (configuration not stated) | Active |  |
| CCCCOC(=O)[C@@H]1CCC(=O)N1 |  | Active |
